This note sets out measurements from paper PMC5500991, “Substituted arylsulphonamides as inhibitors of perforin-mediated lysis” (European Journal of Medicinal Chemistry, 2017).

In series [1] the target is T1, perforin delivered by KHYG1 NK cells (Homo sapiens, UniProt P14222).
T1 construct: The use of whole NK cells to deliver perforin provides a more realistic model of conditions in vivo; endogenous in cells; host or cells: KHYG1 human NK cells (effector); K562 leukemia target cells
T1 sequence (P14222 22-555): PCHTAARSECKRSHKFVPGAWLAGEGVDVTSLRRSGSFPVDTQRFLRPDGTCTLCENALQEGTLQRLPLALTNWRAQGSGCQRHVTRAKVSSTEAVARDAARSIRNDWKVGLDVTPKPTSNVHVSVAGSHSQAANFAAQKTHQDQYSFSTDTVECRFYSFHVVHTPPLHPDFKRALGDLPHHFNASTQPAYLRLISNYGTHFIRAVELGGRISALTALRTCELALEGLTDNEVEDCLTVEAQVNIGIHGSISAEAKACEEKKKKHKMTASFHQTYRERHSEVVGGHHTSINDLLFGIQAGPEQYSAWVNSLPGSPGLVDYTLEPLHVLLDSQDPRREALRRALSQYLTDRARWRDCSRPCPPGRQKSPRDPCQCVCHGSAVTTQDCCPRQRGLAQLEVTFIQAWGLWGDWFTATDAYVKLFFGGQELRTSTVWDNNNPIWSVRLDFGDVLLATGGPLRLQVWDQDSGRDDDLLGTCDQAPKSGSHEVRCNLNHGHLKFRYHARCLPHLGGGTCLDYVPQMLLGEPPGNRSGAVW
Nature of the series: KHYG1 inhibitory assay: lysis of 51Cr-labelled K562 target cells by KHYG1 NK cells. The series is classed as cell-based. The following applies: 51Cr-labelled K562 target cells co-incubated with KHYG1 human NK cells, vs untreated control, n = 4. Here is the method:
The inhibitory function is then determined by identifying the number of untreated or inhibitor treated effector cells required to kill the same number of targets.

The nature of series [2]: Toxicity to KHYG1 NK cells (Trypan blue exclusion). The series is classed as cell-based, human. Conditions: human, viability of KHYG1 NK cells after 24 h, n = 3. Here is the method:
The toxicity assay was carried out in exactly the same manner as the killing assay above, but instead of adding the labelled K562 target cells, 100 μL of RPMI 0.1% BSA was added. Cells were incubated for 4 h at 37 °C and then washed ×3 in RPMI + 0.1% BSA. […] Trypan blue was added to each well. Viable (clear) cells and total (clear + blue) cells were counted, and the percentage of viable cells was calculated compared to DMSO treated cell control (% viability).

Series [3] in a line: Solubility of the sodium salt in water. The class given is physicochemical. Conditions: sodium salt in water at room temperature. Here is the method: The compound was dissolved in water until it was no longer soluble in order to achieve a supersaturated concentration. The suspensions were sonicated for 15 min. prior to centrifugation at 13,000 revolutions per minute (rpm) for 6 minutes. Supernatants were removed and then recentrifuged prior to dilution of at least two fold in water to avoid precipitation during HPLC analysis.

Series [4] is described as follows: Microsome stability, mouse. The series is classed as in vitro ADME. Conditions: parent (as sodium salt) remaining after 30 min, mouse microsomes. Here is the method:
(§1) Microsome stability was carried out at Cyprotex using pooled human liver microsomes (male and female), pooled rat liver microsomes (male, Sprague Dawley rats), pooled mouse liver microsomes (male CD-1 mice) which were either prepared or purchased from a reputable commercial supplier. […] The final incubation volume was 25 μL. A control incubation was included for each compound tested where 0.1 M phosphate buffer pH 7.4 was added instead of NADPH (minus NADPH). Two control compounds were included with each species. All incubations were performed singularly for each test compound. Each compound was incubated for 0, 5, 15, 30 and 45 min. The control (minus NADPH) was incubated for 45 min only. The reactions were stopped by the addition of 50 μL methanol containing internal standard at the appropriate time points. The incubation plates were centrifuged at 2,500 rpm for 20 min at 4 °C to precipitate the protein. Following precipitation, the sample supernatants were combined in cassettes of up to 4 compounds and analysed using Cyprotex generic LC-MS/MS conditions. From a plot of ln peak area ratio (compound peak area/internal standard peak area) against time, the percentage compound remaining at 30 min was calculated. Results that were > 100% of matched control were defined as 100%.

Another series can be described thus: Microsome stability, rat. The class given is in vitro ADME. The following applies: parent (as sodium salt) remaining after 30 min, rat microsomes. Here is the method:
as §1

Series [5] is described as follows: In vivo plasma pharmacokinetics in mice. The following applies: mouse plasma, 10 mg/kg i.p. in 20% hydroxypropyl-β-cyclodextrin. As to the method: The in vivo PK parameters were measured for seven compounds selected on the basis of the in vitro assessment described above. Plasma pharmacokinetics were determined in male CD-1 mice for compounds 3, 10, 11, 26, 50, 58 and 59 (Table 6). Blood samples were collected at 5–8 time-points after dosing the compounds at 10 mg/kg in a solution of 20% hydroxypropyl-β-cyclodextrin by intraperitoneal (IP) injection. For analysis of the samples, chromatographic conditions were optimised by HPLC for each compound of interest and an internal standard. A liquid chromatography with tandem mass spectrometry (LC-MS/MS) method was then developed and validated for quantitation of each analyte.
PK studies were carried out in female C57BL/6J (female) mice using IP administration of test compound, dosing at 10 mg/kg in a solution of 20% hydroxypropyl-β-cyclodextrin. Mice (n=3 at each time point) were culled with excess inhalation of CO2 and blood collected by cardiac puncture at 5-8 time points after dosing in ice cold EDTA tubes. Plasma was separated by centrifuging at 6000 rpm for 5 min and stored at -80°C until analysis by LC-MS/MS. Frozen plasma was thawed on wet ice on the day of analysis. Ten μL of sample was transferred to a clean microcentrifuge tube and mixed with ice cold acetonitrile (40 μL containing internal standard) to precipitate the plasma proteins. The tubes were centrifuged at 13000 rpm for 5 min to obtain a clear supernatant which was mixed with 0.01% formic acid-water (1:2). Ten to twenty µL was injected into the LC-MS/MS to measure the analyte concentration in the sample. The samples were quantitated against a calibration curve of known analyte concentrations run in test species blank plasma (sourced from Innovative Research, USA). The concentration vs time data was then fitted into a pharmacokinetic software program (Phoenix WinNonlin v6.2) to calculate the PK parameters including T½, Cmax and AUC0-∞.

The nature of series [6]: Stability in solution (water, 20 °C, 24 h). The series is classed as physicochemical. Conditions: sodium salt, 24 h at 20 °C in water. As to the method:
Test compounds were incubated (10 μM; < 2.5% DMSO in final concentration) in Milli Q water (n=3 tubes) at 20 °C for 24 h. (Eppendorf Thermomixer Comfort). Aliquots were collected (25 μL) just before the incubation (time “0 min”) and at 24 h. These samples were stored in a -80 °C freezer until the analysis by liquid chromatography with tandem mass spectrometry spectrometry (LC-MS/MS) – see next section for method development. Samples were thawed on wet ice on the day of assay. Thawed aliquots were mixed by vortex mixer, 10 μL of the sample transferred to a clean tube, 40 μL of ice cold acetonitrile added (containing internal standard compound), then centrifuged at 13,000 rpm for 5 min, 40 μL of clear supernatant transferred to an HPLC insert and mixed with 80 μL of 0.01% formic acid in water. Ten to 20 μL was injected onto the LC-MS/MS system. Results are based on the peak area ratio of drug to internal standard at time “0 h” (i.e. before the incubation and at the end i.e. “24 h”).

A further series addresses T2, recombinant perforin (Mus musculus, UniProt P10820).
T2 sequence (P10820 21-554): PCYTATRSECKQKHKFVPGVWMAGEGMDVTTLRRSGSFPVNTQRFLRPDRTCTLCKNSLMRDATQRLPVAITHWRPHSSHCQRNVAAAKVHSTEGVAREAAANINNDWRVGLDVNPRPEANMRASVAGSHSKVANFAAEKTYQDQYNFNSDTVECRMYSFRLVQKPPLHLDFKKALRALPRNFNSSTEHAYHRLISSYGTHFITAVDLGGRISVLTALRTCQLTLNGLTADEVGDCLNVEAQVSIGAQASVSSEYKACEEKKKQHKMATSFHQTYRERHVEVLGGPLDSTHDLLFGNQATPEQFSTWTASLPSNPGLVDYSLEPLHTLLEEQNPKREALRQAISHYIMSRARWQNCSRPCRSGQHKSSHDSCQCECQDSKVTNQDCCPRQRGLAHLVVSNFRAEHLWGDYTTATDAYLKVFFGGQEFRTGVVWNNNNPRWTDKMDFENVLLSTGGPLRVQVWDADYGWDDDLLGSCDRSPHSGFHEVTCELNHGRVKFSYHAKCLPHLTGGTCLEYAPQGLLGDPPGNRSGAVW
Nature of the series: Inhibition of perforin-mediated lysis of Jurkat cells (51Cr release). The class given is cell-based. The following applies: recombinant perforin pre-incubated with compound 30 min; 51Cr-labelled Jurkat cells, 0.1% BSA, 4 h. An excerpt: The supernatant was collected and assessed for its radioactive content on a gamma counter (Wallac Wizard 1470 automatic gamma counter).

Take `CN1Cc2cc(-c3ccc(-c4cncc(NS(=O)(=O)c5ccc([N+](=O)[O-])cc5)c4)s3)ccc2C1=O` [Compound 59, N-(5-(5-(2-Methyl-1-oxoisoindolin-5-yl)thiophen-2-yl)pyridin-3-yl)-4-nitrobenzenesulfonamide]: the inhibition at 10 µM in series [1] turned out to be 77.5 ± 5.6%. The compound also had a viability at 24 h, 10 µM in series [2] of 85 ± 12%. In addition, the solubility at 15 min in series [3] stood at 1680 µg/mL. Besides, the “Microsome Stability (%) Mouse” value in series [4] was determined as 85%. Also, the “Microsome Stability (%) Rat” value in the series “Microsome stability, rat” was found to be 72%. For the same compound, in series [5], the “AUC0-∞” value was determined as 383 µmol·h/L, the Cmax is 64 µM and the T1/2 is given as 2.2 h.
As to `CN1Cc2cc(-c3ccc(-c4cncc(NS(=O)(=O)c5cccc(C(F)(F)F)c5)c4)s3)ccc2C1=O` [Compound 45, N-(5-(5-(2-Methyl-1-oxoisoindolin-5-yl)thiophen-2-yl)pyridin-3-yl)-3-(trifluoromethyl)benzenesulfonamides], the inhibition at 10 µM in series [1] was determined as 88.8 ± 1.9%. The same compound had a viability at 24 h, 10 µM in series [2] of 100%. For the same compound, in [3], the Solubility entry was “negative impact on solubility” and the solubility at 15 min stood at 574 µg/mL. Moreover, the “Microsome Stability (%) Mouse” value in [4] was 97%. Besides, the “Microsome Stability (%) Rat” value in the series “Microsome stability, rat” is listed as 80%.
`CN1Cc2cc(-c3ccc(-c4cncc(NS(=O)(=O)c5c(F)cc(F)cc5F)c4)s3)ccc2C1=O` [Compound 26, 2,4,6-Trifluoro-N-(5-(5-(2-methyl-1-oxoisoindolin-5-yl)thiophen-2-yl)pyridin-3-yl)benzenesulfonamide]: the inhibition at 10 µM in series [1] was 81.3 ± 6.3%. In [2], this compound came in with a viability at 24 h, 10 µM of 95.1 ± 2.1%. In addition, in series [3], the Solubility result is “highly soluble” and the solubility at 15 min was 10700 µg/mL. Further, the “Stability in Solution (% parent remaining)” value in [6] is listed as 88%. Besides, in series [4], the “Microsome Stability (%) Mouse” value turned out to be 100%. In the series “Microsome stability, rat”, the “Microsome Stability (%) Rat” value amounted to 83%. Also, in series [5], the “AUC0-∞” value stood at 1019 µmol·h/L, the Cmax was determined as 124 µM and the T1/2 is given as 4.5 h.
For the compound `CN1Cc2cc(-c3ccc(-c4cncc(NS(=O)(=O)c5ccccc5C(F)(F)F)c4)s3)ccc2C1=O` [Compound 44, N-(5-(5-(2-Methyl-1-oxoisoindolin-5-yl)thiophen-2-yl)pyridin-3-yl)-2-(trifluoromethyl)benzenesulfonamide], the inhibition at 10 µM in series [1] was 85 ± 5.6%. In [2], this compound gave a viability at 24 h, 10 µM of 100%. Also, in series [3], the Solubility entry is listed as “negative impact on solubility” and the solubility at 15 min worked out at 88 µg/mL. Besides, the “Stability in Solution (% parent remaining)” value in [6] came to 92%. Also, in series [4], the “Microsome Stability (%) Mouse” value was 84%. Besides, the “Microsome Stability (%) Rat” value in the series “Microsome stability, rat” is 49%.
For the compound `CN1Cc2cc(-c3ccc(-c4cncc(NS(=O)(=O)c5ccc(C#N)cc5)c4)s3)ccc2C1=O` [Compound 50, 4-Cyano-N-(5-(5-(2-methyl-1-oxoisoindolin-5-yl)thiophen-2-yl)pyridin-3-yl)benzenesulfonamide], the inhibition at 10 µM in [1] came to 75 ± 7.8%. Also, the viability at 24 h, 10 µM in [2] is 99.3 ± 0.3%. In [3], the Solubility result is listed as “highly soluble” and the solubility at 15 min was 12900 µg/mL. Further, the “Stability in Solution (% parent remaining)” value in [6] worked out at 85%. Moreover, in series [4], the “Microsome Stability (%) Mouse” value is on record as 87%. The “Microsome Stability (%) Rat” value in the series “Microsome stability, rat” worked out at 64%. In series [5], the “AUC0-∞” value was 642 µmol·h/L, the Cmax was 87 µM and the T1/2 stood at 3.3 h.
`CN1Cc2cc(-c3ccc(-c4cncc(NC(=O)c5ccc(F)cc5F)c4)s3)ccc2C1=O` [Compound 8, 2,4-Difluoro-N-(5-(5-(2-methyl-1-oxoisoindolin-5-yl)thiophen-2-yl)pyridin-3-yl)benzamide] had a melting point of 267 to 269 °C. For the same compound, at recombinant perforin, the “Inhibition of Jurkat Cell Lysis IC50” value is recorded as “complete loss of potency”.
The compound `CN1Cc2cc(-c3ccc(-c4ccc(NS(=O)(=O)c5ccc(F)cc5F)nc4)s3)ccc2C1=O` [Compound 4, 2,4-Difluoro-N-(5-(5-(2-methyl-1-oxoisoindolin-5-yl)thiophen-2-yl)pyridin-2-yl)benzenesulfonamide] had a melting point of 269 to 272 °C. On recombinant perforin, the “Inhibition of Jurkat Cell Lysis IC50” value was “activity is abolished”.
